What is called Km is the concentration of substrate that gives half-maximal velocity.

Data on two compounds can be found in EP3911180B1, “PAENIBACILLUS WYNNII BETA-GALACTOSIDASE FOR THE PRODUCTION OF LACTOSE-DEPLETED AND GOS-ENRICHTED DAIRY PRODUCTS” (Universität Hohenheim, priority 2019, dated 2020).

Test [1] concerns the target T1, P. wynnii beta-galactosidase (SEQ ID NO: 1) (Paenibacillus wynnii, UniProt A0A098MAF9). Put plainly: Influence of galactose on the enzyme activity, lactose assay. The test is classed as biochemical. The following applies: 8 °C. The method, then: (§1) For the substrate solution 400 mM lactose was dissolved in Novo buffer (the composition of which is depicted in Table 4). The beta-galactosidase activity was determined in a thermo shaker in 1.5 mL reaction tubes at 8°C. The enzyme mix and the lactose solution were preincubated at 8 °C for 12 min. To start the enzymatic reaction 100 µL of the enzyme mix were added to 100 µL lactose solution. The reaction was carried out for 5 min at 8 °C. The reaction was stopped by adding 300 µL 1 M HClO4 to the enzyme-substrate-mix. The mix was kept on ice for 5 min before it was centrifuged at 13 000 rcf and 4 °C for 5 min. 160 µL of the supernatant were transferred to 75 µL 2 M KOH to neutralise the solution. The neutralisation step was checked using pH paper and the pH was adjusted if necessary. The solution was kept on ice for another 5 min before it was centrifuged at 13 000 rcf at 4 °C for 5 min. All assays were performed in triplicate. Table 4: Composition of Novo buffer
(§2) The influence of galactose was investigated with P. wynnii beta-galactosidase and the commercial beta-galactosidase Opti-Lactase (Optiferm GmbH, Oy-Mittelberg (D)). The determination of the enzyme activity in Novo buffer was conducted with a lactose concentration of 125 mM and 50 mM respectively. To this solutions 125 or 200 mM galactose were added. The determination of the enzyme activity was performed as described above.
(§3) First, 125 and 200 mM galactose respectively were added to 125 mM lactose (A). The enzyme activity of the technical enzyme preparation decreased with increasing galactose concentration. An activity of 51.8 % was determined. […] In another experiment 200 mM galactose was added to 50 mM lactose (B). Here, the same effect as in (A) could be observed.

For test [2], the target named is commercial beta-galactosidase Opti-Lactase (K. lactis) (Kluyveromyces lactis, UniProt P00723). The description is as above. In kind it is biochemical. Particulars: 200 mM galactose, 8 °C, substrate Lactose. The method, then: as §1, §2, §3
Test [3] has as its system Metagenome M1 beta-galactosidase (metagenome beta-galactosidase 3J33 as described in EP 2 530 148 A1). Put plainly: Influence of glucose and galactose on the enzyme activity, oNPGal assay. In kind it is biochemical. Particulars: 200 mM galactose, 37 °C, substrate oNPGal. The protocol:
(§4) The enzyme activity of beta-galactosidase was determined in 1.2 mL scale using oNPGal as substrate at 37 °C. For the assays a final concentration of 25 mM oNPGal dissolved in 100 mM potassium phosphate buffer (pH 6.75 containing 5 mM magnesium chloride) was used. Substrate and enzyme solution were preheated separately. The reaction was performed in a temperature-controlled cuvette using a spectrophotometer by adding enzyme solution to oNPGal solution. The increase of absorbance at 405 nm as result of o-nitrophenol release was measured for 2 min. The activity was calculated from the slope of the straight line.
(§5) Due to the experimental setup (analysis), it was not possible to measure the influence of glucose with the natural substrate lactose.

Test [4] addresses T1, P. wynnii beta-galactosidase (SEQ ID NO: 1). The description is as above. Particulars: pH 6.75, 200 mM Galactose, 37 °C, read-out: Relative enzyme activity. In kind it is biochemical. The method, then: as §4, §5
Test [5] has as its system Metagenome M1 beta-galactosidase (metagenome beta-galactosidase 3J33 as described in EP 2 530 148 A1). Put plainly: Influence of galactose on the enzyme activity, lactose assay. Particulars: 8 °C; for Relative enzyme activity: Lactose-Assay. The test is classed as biochemical. The protocol: as §1
The influence of galactose was also investigated with the metagenome M1 beta-galactosidase as described before. The determination of the enzyme activity in Novo buffer was conducted with a lactose concentration of 125 mM and 50 mM respectively. To this solutions 125 or 200 mM galactose were added.

Test [6] addresses K. lactis beta-galactosidase (Kluyveromyces lactis, UniProt P00723). Particulars: 200 mM galactose, 37 °C, substrate oNPGal; cited from earlier work.
Test [7] relates to P. barengoltzii beta-galactosidase. Particulars: 200 mM galactose, 45 °C, substrate oNPGal; cited from earlier work.
Test [8] concerns the target T1, P. wynnii beta-galactosidase (SEQ ID NO: 1). As to the kind of experiment: Determination of KM with lactose as substrate. The test is classed as biochemical. The following applies: Novo-buffer, 8 °C. The method, then:
as §1, with “The solution was kept on ice for another 5 min before it was centrifuged at 13 000 rcf at 4 °C for 5 min. All assays were performed in triplicate. Table 4: Composition of Novo buffer” left out
The kinetic parameters were determined using the natural substrate lactose. […]
For the determination of the KM values of P. wynnii beta-galactosidase lactose concentrations ranged from 0.76 mM to 97.5 mM. […] The enzyme activities were measured under initial reaction velocity conditions of the enzyme. The reaction times for the initial velocity of the enzymes were determined in previous experiments. The kinetic parameter KM was analysed using the Enzyme Kinetics Module in SigmaPlot 12.5 (Systat Software, Inc., San Jose, USA). […]

In test [9] the test system is Metagenome M1 beta-galactosidase (metagenome beta-galactosidase 3J33 as described in EP 2 530 148 A1). As to the kind of experiment: Turnover number with lactose as substrate. In kind it is biochemical. The following applies: 8 °C. The method, then: To determine the turnover number, the specific activity of the enzymes on lactose at 8 °C was determined. The following formula was used to determine the turnover number: Kcat = (Vmax)/([E]) [s^−1] [formula] • Kcat = turnover number [s^-1] • Vmax = maximum activity [nkat/mg] • [E] = enzyme concentration […]
In Table 9, the calculated turnover numbers of the two beta-galactosidases are depicted. Table 9: Turnover numbers of the beta-galactosidases M1 and P. wynnii (8 °C, lactose as substrate)

Test [10] shares this test system. Particulars: 8 °C, read-out: KM,lactose, cited from earlier work.
Test [11] concerns Bacillus circulans beta-galactosidase. Particulars: phosphate buffer, 40 °C; read-out: KM,lactose; cited from earlier work.
For test [12], the system named is beta-galactosidase PbGal2A from P. barengoltzii. The following applies: read-out: KM,lactose, cited from earlier work.

Entries after “also recorded” stand apart in the source; their conditions may differ. Like-named read-outs stand apart in the source and are kept apart here.

T1 sequence (A0A098MAF9 1-1042): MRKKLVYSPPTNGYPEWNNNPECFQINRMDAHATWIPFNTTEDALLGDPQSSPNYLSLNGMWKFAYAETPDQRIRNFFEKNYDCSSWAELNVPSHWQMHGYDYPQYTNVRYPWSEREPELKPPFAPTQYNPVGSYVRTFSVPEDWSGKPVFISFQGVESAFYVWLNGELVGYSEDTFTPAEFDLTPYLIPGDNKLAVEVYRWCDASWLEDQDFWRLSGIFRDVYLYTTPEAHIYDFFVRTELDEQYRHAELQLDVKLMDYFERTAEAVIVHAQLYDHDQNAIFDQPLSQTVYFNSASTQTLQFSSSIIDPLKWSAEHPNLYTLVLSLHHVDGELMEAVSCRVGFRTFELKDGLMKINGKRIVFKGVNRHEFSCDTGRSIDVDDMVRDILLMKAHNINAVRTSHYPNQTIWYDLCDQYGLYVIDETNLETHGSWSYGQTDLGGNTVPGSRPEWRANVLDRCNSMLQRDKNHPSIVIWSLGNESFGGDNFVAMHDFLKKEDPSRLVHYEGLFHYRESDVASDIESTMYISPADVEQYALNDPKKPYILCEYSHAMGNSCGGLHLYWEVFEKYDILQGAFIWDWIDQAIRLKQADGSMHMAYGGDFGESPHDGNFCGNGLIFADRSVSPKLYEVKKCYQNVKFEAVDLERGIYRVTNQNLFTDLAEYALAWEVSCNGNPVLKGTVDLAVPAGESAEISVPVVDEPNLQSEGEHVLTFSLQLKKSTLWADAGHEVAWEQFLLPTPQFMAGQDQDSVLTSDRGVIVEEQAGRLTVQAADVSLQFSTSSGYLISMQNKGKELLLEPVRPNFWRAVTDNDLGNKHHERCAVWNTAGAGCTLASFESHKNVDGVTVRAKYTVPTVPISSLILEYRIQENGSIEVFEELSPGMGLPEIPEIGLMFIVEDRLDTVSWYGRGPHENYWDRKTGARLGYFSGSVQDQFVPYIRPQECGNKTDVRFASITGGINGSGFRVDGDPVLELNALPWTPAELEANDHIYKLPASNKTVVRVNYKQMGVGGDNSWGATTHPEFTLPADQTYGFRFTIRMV
K. lactis beta-galactosidase, sequence (P00723 whole entry): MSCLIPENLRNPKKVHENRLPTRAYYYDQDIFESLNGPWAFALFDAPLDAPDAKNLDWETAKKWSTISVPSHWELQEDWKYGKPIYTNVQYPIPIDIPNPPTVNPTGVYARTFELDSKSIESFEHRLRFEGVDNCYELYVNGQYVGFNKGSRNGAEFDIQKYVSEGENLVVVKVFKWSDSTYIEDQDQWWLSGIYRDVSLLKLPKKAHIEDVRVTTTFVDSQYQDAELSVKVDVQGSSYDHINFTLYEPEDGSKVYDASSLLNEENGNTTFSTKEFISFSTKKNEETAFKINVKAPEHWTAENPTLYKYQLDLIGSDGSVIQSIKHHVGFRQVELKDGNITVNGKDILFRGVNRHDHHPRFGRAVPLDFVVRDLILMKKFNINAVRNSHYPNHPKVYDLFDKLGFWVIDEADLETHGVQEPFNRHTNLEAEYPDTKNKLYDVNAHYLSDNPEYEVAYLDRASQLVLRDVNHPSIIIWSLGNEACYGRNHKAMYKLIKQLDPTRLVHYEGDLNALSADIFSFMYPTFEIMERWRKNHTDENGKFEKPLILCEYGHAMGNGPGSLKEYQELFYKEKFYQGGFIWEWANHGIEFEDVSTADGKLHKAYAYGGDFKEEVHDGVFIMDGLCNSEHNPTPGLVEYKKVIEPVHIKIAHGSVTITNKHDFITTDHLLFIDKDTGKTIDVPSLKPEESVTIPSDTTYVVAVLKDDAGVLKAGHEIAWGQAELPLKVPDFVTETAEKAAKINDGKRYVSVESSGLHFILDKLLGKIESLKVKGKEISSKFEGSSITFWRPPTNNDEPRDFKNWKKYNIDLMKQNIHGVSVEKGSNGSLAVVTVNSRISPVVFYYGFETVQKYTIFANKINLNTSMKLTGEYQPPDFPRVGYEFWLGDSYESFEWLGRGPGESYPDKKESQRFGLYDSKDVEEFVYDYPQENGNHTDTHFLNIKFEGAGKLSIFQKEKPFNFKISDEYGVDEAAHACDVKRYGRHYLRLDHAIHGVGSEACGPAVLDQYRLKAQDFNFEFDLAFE
commercial beta-galactosidase Opti-Lactase (K. lactis), sequence (P00723 whole entry): as above

As to `OC[C@H]1OC(O)[C@H](O)[C@@H](O)[C@H]1O` (stereo partly drawn) [galactose, D-galactose], the activity at 200000 µM in test [1] (200 mM galactose, substrate Lactose) stood at 100%; in [2], 32.5%. The remaining activity at 200000 µM in [1] (5 min, 50 mM lactose + 200 mM galactose, Lactose-Assay, read-out: Relative enzyme activity) amounted to 110%; in [1] (5 min, 125 mM lactose + 200 mM galactose, Lactose-Assay, read-out: Relative enzyme activity) it was 115%; in test [4], 118%. In addition, in [1] (5 min, 125 mM lactose + 125 mM galactose, Lactose-Assay, read-out: Relative enzyme activity), the remaining activity at 125000 µM is 108%. Besides, the inhibition by galactose entry in test [1] (galactose up to 200 mM, Novo buffer, lactose as substrate) is “No inhibition; also recorded: did not have an inhibitory effect”; in [5] (125 or 200 mM galactose, 125 or 50 mM lactose, Novo buffer), “did also not have an inhibitory effect”. Also, the “Influence of galactose (200 mM)” value in test [3] is reported as 100 % EA; in [6], 75 % EA; in [7], 43.27 % EA. The values for the Relative enzyme activity in test [5] (50 mM lactose + 200 mM galactose), in [5] (125 mM lactose + 125 mM galactose) and in test [5] (125 mM lactose + 200 mM galactose) were 100%, 97% and 101%, respectively.

As for `OC[C@H]1O[C@@H](O[C@H]2[C@H](O)[C@@H](O)C(O)O[C@@H]2CO)[C@H](O)[C@@H](O)[C@H]1O` (stereo partly drawn) [lactose], the Michaelis constant (Km) in test [8] is 0.34 to 0.52 mM; in test [10] (Novo buffer) it was 1.44 mM; in test [10] (milk + Novo buffer), 2.1 mM; in test [11], 16 mM; in test [12] (MOPS buffer, 45 °C) it was 43.3 mM; in test [12], 43.3 ± 1.84 mM. Also, the “Turnover number (Kcat)” value in [9] was determined as 2.466 s⁻¹.
